# In ChEMBL document CHEMBL3600282, “Four new ginsenosides from red ginseng with inhibitory activity on melanogenesis in melanoma cells” (Bioorg Med Chem Lett, 2015):
# Calls of active or inactive are those of the source. The calls are words filed in the database; no cut-off is given here.
# Key:
# [1] = Cytotoxicity against mouse B16 cells assessed as cell viability up to 100 uM after 48 hrs by MTT assay; type: cell-based; settings: read-out: Activity
# B16 [2] = assay: Inhibition of alpha-MSH-induced melanogenesis in mouse B16 cells assessed as reduction of melanin content at 25 to 100 uM after 48 hrs; type: functional, cell-based
# [3] = biological target: T1, Tyrosinase (Mus musculus) (UniProt P11344); assay: Inhibition of alpha-MSH-induced tyrosinase activity in mouse B16 cells assessed as reduction of melanin content using L-DOPA as substrate after 2 hrs; type: cell-based
# T1 sequence (whole entry): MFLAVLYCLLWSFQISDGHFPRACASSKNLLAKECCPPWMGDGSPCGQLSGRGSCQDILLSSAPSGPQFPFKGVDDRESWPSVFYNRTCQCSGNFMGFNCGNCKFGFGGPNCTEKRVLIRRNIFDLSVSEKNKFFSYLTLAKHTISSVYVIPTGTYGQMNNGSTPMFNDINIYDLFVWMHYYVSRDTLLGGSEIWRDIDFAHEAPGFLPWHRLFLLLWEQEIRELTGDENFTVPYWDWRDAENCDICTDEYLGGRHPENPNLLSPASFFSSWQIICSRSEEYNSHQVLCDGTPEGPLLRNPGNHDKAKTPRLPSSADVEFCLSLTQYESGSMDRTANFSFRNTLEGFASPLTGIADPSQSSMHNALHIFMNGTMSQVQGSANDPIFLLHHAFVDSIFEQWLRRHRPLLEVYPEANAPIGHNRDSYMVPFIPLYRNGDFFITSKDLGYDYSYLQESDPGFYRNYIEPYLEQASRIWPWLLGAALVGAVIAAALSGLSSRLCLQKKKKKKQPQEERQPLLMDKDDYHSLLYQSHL
# B16 [4] = assay: Inhibition of alpha-MSH-induced melanogenesis in mouse B16 cells assessed as reduction of melanin content at 100 uM after 48 hrs; type: functional, cell-based
# B16 [5] = assay: Inhibition of alpha-MSH-induced melanogenesis in mouse B16 cells assessed as reduction of melanin content after 48 hrs; type: functional, cell-based
# B16 [6] = assay: Inhibition of alpha-MSH-induced melanogenesis in mouse B16 cells assessed as reduction of melanin content at 200 uM after 48 hrs; type: functional, cell-based
inhibition [3],Compound,viability at 48 h [1] [%],inhibition (B16 [2]),inhibition (B16 [4]),inhibition (B16 [5]),inhibition (B16 [6])
–,CC(C)=CCC[C@](C)(O)[C@H]1CC[C@]2(C)[C@@H]1[C@H](O)C[C@@H]1[C@@]3(C)CC[C@H](O)C(C)(C)[C@@H]3[C@@H](O[C@@H]3O[C@H](CO)[C@@H](O[C@H]4O[C@H](CO)[C@@H](O)[C@H](O)[C@H]4O)[C@H](O)[C@H]3O)C[C@]12C,95,inactive,–,–,–
Dose-dependent effect,COC(/C=C(\C)[C@H]1CC[C@]2(C)[C@@H]1[C@H](O)C[C@@H]1[C@@]3(C)CC[C@H](O[C@@H]4O[C@H](CO)[C@@H](O)[C@H](O)[C@H]4O[C@@H]4O[C@H](CO)[C@@H](O)[C@H](O)[C@H]4O)C(C)(C)[C@@H]3CC[C@]12C)C1OC1(C)C (stereo partly drawn),95,–,Active,Dose-dependent effect,–
Dose-dependent effect,CC(=O)OC[C@H]1O[C@@H](O[C@H]2[C@H](O[C@H]3CC[C@]4(C)[C@H]5C[C@@H](O)[C@@H]6[C@@H](/C(C)=C\CC=C(C)C)CC[C@@]6(C)[C@]5(C)CC[C@H]4C3(C)C)O[C@H](CO)[C@@H](O)[C@@H]2O)[C@H](O)[C@@H](O)[C@@H]1O,95,–,Active,Dose-dependent effect,–
–,CCCCOC(=O)[C@H]1O[C@@H](O[C@H]2CC[C@]3(C)[C@H]4CC=C5[C@@H]6CC(C)(C)CC[C@]6(C(=O)O[C@@H]6O[C@H](CO)[C@@H](O)[C@H](O)[C@H]6O)CC[C@@]5(C)[C@]4(C)CC[C@H]3C2(C)C)[C@H](O[C@@H]2O[C@H](CO)[C@@H](O)[C@H](O)[C@H]2O)[C@@H](O)[C@@H]1O,95,inactive,–,–,–
–,OC[C@H]1O[C@@H](Oc2ccc(O)cc2)[C@H](O)[C@@H](O)[C@@H]1O,–,–,–,–,Active
